“Also recorded” adds a separate entry of the source. Read-outs that look alike come from different tables or passages of the source.
Columns and labels:
[1] = tested on: BRAF-mutant Colo205, A375P F11s, and HT-29 human tumor xenograft; settings: 0.3 mg/kg; cited from earlier work
[2] = tested on: melanoma, pancreatic cancer, CRC; settings: cited from earlier work
[3] = tested on: advanced cancer patients with varying degrees of hepatic dysfunction; settings: human, in vivo
[4] = 25° C; cited from earlier work
[5] = tested on: unresectable stage IIIC or IV cutaneous melanoma with BRAF V600E or V600K mutation; settings: cited from earlier work
[6] = set-up: method as in ref 17 (a number printed in a supplementary file, which may have a reference list of its own: not looked up in the article's list); settings: cited from earlier work
[7] = tested on: rabbits; settings: rabbit, in vivo; cited from earlier work
[8] = tested on: untreated pancreatic cancer; set-up: method as in ref 25 (a number printed in a supplementary file, which may have a reference list of its own: not looked up in the article's list); settings: gemcitabine plus trametinib 2 mg QD; cited from earlier work
[9] = tested on: PC3, BxPC3, and BT474 xenograft lines; settings: no tumor regressions; cited from earlier work
[10] = cited from earlier work
[11] = tested on: panel of 183 kinases, including MEK5, CRAF, BRAF, ERK1, and ERK2; set-up: method as in ref 18 (a number printed in a supplementary file, which may have a reference list of its own: not looked up in the article's list); settings: cited from earlier work
[12] = tested on: MEK1; set-up: method as in ref 17 (a number printed in a supplementary file, which may have a reference list of its own: not looked up in the article's list); settings: read-out: IC50 against MEK1; cited from earlier work
[13] = tested on: KRAS-mutant NSCLC; set-up: method as in ref 24 (a number printed in a supplementary file, which may have a reference list of its own: not looked up in the article's list); settings: cited from earlier work
[14] = clinical; settings: human, 2 mg
[15] = tested on: patients in clinical trials of trametinib; settings: cited from earlier work
[16] = dose normalized to 2 mg
[17] = tested on: CYP enzymes; BCRP, MRP2, OATP1B1, OATP1B3, OATP2B1, OCT1, MATE1, P-gp, BSEP; settings: cited from earlier work
[18] = tested on: A549 xenograft; set-up: method as in ref 17 (a number printed in a supplementary file, which may have a reference list of its own: not looked up in the article's list); settings: cited from earlier work
[19] = tested on: MEK2; set-up: method as in ref 17 (a number printed in a supplementary file, which may have a reference list of its own: not looked up in the article's list); settings: read-out: IC50 against MEK2; cited from earlier work
[20] = tested on: RAF-mediated MEK1 activation; set-up: method as in ref 19 (a number printed in a supplementary file, which may have a reference list of its own: not looked up in the article's list); settings: read-out: IC50, inhibition of RAF-mediated MEK1 activation; cited from earlier work
[21] = 2 mg monotherapy, 96 total patients

CC(=O)Nc1cccc(-n2c(=O)n(C3CC3)c(=O)c3c(Nc4ccc(I)cc4F)n(C)c(=O)c(C)c32)c1 [Trametinib, equimolecular combination of acetamide, N-[3-[3-cyclopropyl-5-[(2-fluoro-4-iodophenyl)amino]-3,4,6,7-tetrahydro6,8-dimethyl-2,4,7-trioxopyrido[4,3-d]pyrimidin-1(2H)-yl]phenyl] with 1,1’-sulfinylbis[methane]]
tumor regression in the Colo205 model [1]: tumor regression was observed | partial response (PR) ([2]; 9 patients with BRAF wt melanoma): 2 patients | overall objective response rate (ORR) ([2]; 14 patients with BRAF-mutant melanoma, 2 mg QD): 43% | complete responses (CRs) ([2]; 14 patients with BRAF-mutant melanoma): 2 | PRs ([2]; 26 evaluable pancreatic cancer patients): 2 | objective responses ([2]; 28 patients with colorectal cancer): no objective responses | RP2D [3]: 2 mg QD | Approximate Solubility in water [4]: < 0.1 µg/mL | CR, n (%) [5]: 4 (2%) n (%) | Duration of response Median, months (95% CI) [5]: […] | Objective Response Rate (95% CI) [5]: 22% | PR, n (%) [5]: 43 (20%) n (%) | 6-month OS rate ([5]; in vivo): 81% | PFS Median, months (95% CI) ([5]; investigator-assessed): 4.8 (4.3, 4.9) months | PFS HR (95% CI) ([5]; trametinib vs chemotherapy, P<0.0001): 0.47 (0.34, 0.65) | Cmax ([6]; Day 7, 3 mg/kg, read-out: average Cmax in blood): 1410 nM | estimated half-life (t1/2) ([6]; mice): 33 h | Embryofetal toxicity [7]: embryotoxic and abortifacient | Median OS [8]: 8.4 months | ORR [8]: 22% | median PFS [8]: 16 weeks | median duration of responses [8]: […] | TGI [9]: 44-46% | terminal half-life ([10]; after single dose administration): 127 h | volume of distribution (Vd) ([10]; following an IV microdose): 1060 L | plasma IV clearance ([10]; human, in vivo, iv): 3.21 L/h | plasma IV clearance as share of liver blood flow ([10]; human, in vivo, iv): approximately 1% | half-life ([10]; patients with normal liver function): approximately 4 days | absolute oral bioavailability ([10]; single 2 mg tablet relative to co-administered IV microdose): 72% | decrease in AUC(0-∞) with a high-fat, high-calorie meal ([10]; single dose, vs fasted): 10% | decrease in Cmax with a high-fat, high-calorie meal ([10]; single dose, vs fasted): 70% | specificity against a panel of 183 kinases [11]: specificity of trametinib was confirmed | IC50 [12]: 0.7 nM | median PFS [13]: 11.7 weeks | overall response rate (ORR) [13]: 12% | Cmax ([14]; in vivo): 27.6 ng/mL | AUC(0-t) ([14]; plasma, oral, AUC0 − 24, Geo mean (%CV), Mild (n = 6), dose normalized to 2 mg): 352 ng·h/mL | AUC(0-t) ([14]; plasma, oral, AUC0 − 24, Geo mean (%CV), Mod (n = 3), dose normalized to 2 mg): 311 ng·h/mL | AUC(0-t) ([14]; plasma, oral, AUC0 − 24, Geo mean (%CV), Sev (n = 3), dose normalized to 2 mg): 229 ng·h/mL | AUC(0-t) ([14]; plasma, oral, AUC0 − 24, Mean (±SD), Mild (n = 6), dose normalized to 2 mg): 388 ng·h/mL | AUC(0-t) ([14]; plasma, oral, AUC0 − 24, Mean (±SD), Mod (n = 3), dose normalized to 2 mg): 312 ng·h/mL | AUC(0-t) ([14]; plasma, oral, AUC0 − 24, Mean (±SD), Norm (n = 10), dose normalized to 2 mg): 469 ng·h/mL | AUC(0-t) ([14]; plasma, oral, AUC0 − 24, Mean (±SD), Sev (n = 3), dose normalized to 2 mg): 240 ng·h/mL | Cmax ([14]; plasma, oral, Cmax, Geo mean (%CV), Mild (n = 6), dose normalized to 2 mg): 26.2 ng/mL | Cmax ([14]; plasma, oral, Cmax, Geo mean (%CV), Mod (n = 3), dose normalized to 2 mg): 16.8 ng/mL | Cmax ([14]; plasma, oral, Cmax, Geo mean (%CV), Norm (n = 10), dose normalized to 2 mg): 26.2 ng/mL | Cmax ([14]; plasma, oral, Cmax, Geo mean (%CV), Sev (n = 3), dose normalized to 2 mg): 15.3 ng/mL | Cmax ([14]; plasma, oral, Cmax, Mean (±SD), Mild (n = 6), dose normalized to 2 mg): 29.5 ng/mL | Cmax ([14]; plasma, oral, Cmax, Mean (±SD), Mod (n = 3), dose normalized to 2 mg): 16.9 ng/mL | grade 4 rash AE ([15]; 2 mg monotherapy, five studies): four patients | LFT changes grade 3 events [15, 21]: 26 | LFT changes grade 4 events [15, 21]: 6 patients | grade 1 or 2 pneumonitis ([15]; 2 mg monotherapy): three subjects | grade 3 diarrhea ([15]; 2 mg monotherapy): 17 patients | grade 3 pneumonitis ([15]; 2 mg monotherapy): six | grade 3 visual disorders ([15]; 2 mg monotherapy): six patients | grade 4 diarrhea ([15]; 2 mg monotherapy): none | grade 4 visual disorder ([15]; 2 mg monotherapy): one patient | cases of RPED ([15]; entire trametinib program as of 23 June 2013, monotherapy or combination): 14 cases | cases of RPED ([15]; integrated safety population, 2 mg once daily, five studies): five cases | CLssF, Geo mean (%CV) ([16]; Mild (n = 6)): 5680.0 (45.5) mL/hr | CLssF, Mean (±SD) ([16]; Mild (n = 6)): 6200.0 (±2818.6) mL/hr | Cavg, Geo mean (%CV) ([16]; Mild (n = 6)): 14.7 (51.9) ng/mL | Cavg, Mean (±SD) ([16]; Mild (n = 6)): 16.2 (±8.4) ng/mL | Cmin, Geo mean (%CV) ([16]; Mild (n = 6)): 10.8 (57.3) ng/mL | Cmin, Mean (±SD) ([16]; Mild (n = 6)): 12.1 (±7.0) ng/mL | CLssF, Geo mean (%CV) ([16]; Mod (n = 3)): 6431.6 (8.4) mL/hr | CLssF, Mean (±SD) ([16]; Mod (n = 3)): 6446.4(±542.6) mL/hr | Cavg, Geo mean (%CV) ([16]; Mod (n = 3)): 13.0 (8.1) ng/mL | Cavg, Mean (±SD) ([16]; Mod (n = 3)): 13.0 (±1.1) ng/mL | Cmin, Geo mean (%CV) ([16]; Mod (n = 3)): 10.4 (22.4) ng/mL | Cmin, Mean (±SD) ([16]; Mod (n = 3)): 10.5 (±2.4) ng/mL | CLssF, Geo mean (%CV) ([16]; Norm (n = 10)): 4449.0 (36.0) mL/hr | CLssF, Mean (±SD) ([16]; Norm (n = 10)): 4675.0 (±1683.6) mL/hr | Cavg, Geo mean (%CV) ([16]; Norm (n = 10)): 18.7 (28.1) ng/mL | Cavg, Mean (±SD) ([16]; Norm (n = 10)): 19.5 (±5.5) ng/mL | Cmin, Geo mean (%CV) ([16]; Norm (n = 10)): 14.4 (29.8) ng/mL | Cmin, Mean (±SD) ([16]; Norm (n = 10)): 15.1 (±4.5) ng/mL | CLssF, Geo mean (%CV) ([16]; Sev (n = 3)): 8736.3 (36.5) mL/hr | CLssF, Mean (±SD) ([16]; Sev (n = 3)): 9141.3 (±3337.1) mL/hr | Cavg, Geo mean (%CV) ([16]; Sev (n = 3)): 9.5 (36.4) ng/mL | Cavg, Mean (±SD) ([16]; Sev (n = 3)): 10.0 (±3.6) ng/mL | Cmin, Geo mean (%CV) ([16]; Sev (n = 3)): 7.6 (32.3) ng/mL | Cmin, Mean (±SD) ([16]; Sev (n = 3)): 7.9 (±2.5) ng/mL | differences of PK parameters (Cmax, Cmin, Cavg, AUC0 − 24) between hepatic function groups ([16]; ANOVA): no significant differences; also recorded: not statistically different | permeability [17]: high permeability | substrate of CYP enzymes ([17]; in vitro): not a substrate | substrate of human BCRP, MRP2, OATP1B1, OATP1B3, OATP2B1, OCT1 or MATE1 transporters ([17]; in vitro): not a substrate | substrate for P-gp and BSEP ([17]; not expected to be clinically relevant): substrate | TGI [18]: 75% | IC50 [19]: […] | IC50 [20]: 0.6 nM
